{
  "source": "patent US8278100B2",
  "about": "“Lasonolide compounds as reagents for inducing premature chromosome condensation and methods for treating disorders” (The United States of America, as Represented by the …, priority 2008, dated 2012)",
  "key": {"MDA-MB-231 cells [1]": {"system": "MDA-MB-231 cells", "experiment": "Cell adhesion assay", "assay_type": "cell-based, human", "description": "The effect of Lasonolide A on the extracellular matrix-induced cell adhesion was determined as follows. Fibronectin or collagen was diluted in sterile water and applied to 96-well plates overnight at 4° C. Nonspecific binding sites were blocked with 1% bovine serum albumin for 1 h at room temperature. Breast cancer MDA-MB-231 cells were serum starved for 45 min, detached with 2 mmol/L EDTA in PBS, plated in triplicate onto wells in serum-free medium with or without Lasonolide A, and allowed to adhere for 1 h at 37° C. Nonadherent cells were washed away and adherent cells were fixed with 4% paraformaldehyde and stained with 0.1% crystal violet in 2% methanol. Following extensive washing with tap water, dye was extracted with 10% acetic acid and quantified by measuring absorbance at 595 nm on a multiwell spectrophotometer (VersaMax, Molecular Devices). (FIGS. 6A, 6B, & 6D)"}, "[2]": {"system": "chromosome condensation in each phase of the cell cycle", "experiment": "Chromosome spread assay", "assay_type": "cell-based", "description": "After the induction of PCC by Lasonolide A, cells were incubated in hypotonic solution (10 mM Tris-HCl [ph 7.4], 40 mM glycerol, 20 mM NaCl, 1 mM CaCl2, 0.5 mM MgCl2) at 37° C. for 15 min. Then followed with cytospining at 1,800 rpm for 10 min and normal PI staining as above (FIG. 1E)."}, "MDA-MB-231 cells [3]": {"system": "MDA-MB-231 cells", "experiment": "Transwell migration assay", "assay_type": "cell-based, human", "conditions": "6 h", "description": "The effect of Lasonolide A on the migration of breast cancer MDA-MB-231 cells was determined in a transwell Boyden Chamber (Costar, Mass.) using a polycarbonate filter with a pore size of […], which was coated with 0.2% gelatin, balancing with gelatin at 37° C. for 1 h, then removal of the gelatin and covering with DMEM without serum overnight at 37° C. In the standard assay, after removing medium, 0.1 mL of cell suspension (1×10^5 cells/ml, in serum-free medium) with Lasonolide A or 0.1% DMSO (v/v) was added to the upper compartment of the chamber. The lower compartment contained 0.6 mL of DMEM medium supplemented with 20% serum. After incubation for 6 h at 37° C., the filter was removed and fixed with ethanol. Cells remaining on the upper surface of the filter (non-migrated) were scraped gently. Then, migrated cells on the lower surface of the filter were stained with 0.1% crystal violet and taken photographs under microscope (FIG. 6C)."}, "[4]": {"system": "actin network in MDA-MB-231 cells", "experiment": "Actin staining with phalloidin", "assay_type": "cell-based, human", "description": "Cells were fixed with 4% paraformaldehyde and permeabilized with PBS containing 0.1% Triton X-100. After blocking with 1% bovine serum albumin for 30 min. Cells were incubated with Alexa Fluor 488-conjugated phalloidin (Molecular Probes) to stain actin stress fibers."}, "CA46 cells": {"system": "CA46 cells", "experiment": "Cell cycle analysis", "assay_type": "cell-based, human", "conditions": "24 h treatment", "description": "(§1) After treatment, cells were collected, washed twice with ice-cold PBS, and fixed overnight with 70% precooled (−20° C.) ethanol. Fixed cells were resuspended in PBS containing 0.02 mg/mL RNase A (Roche, USA) and incubated at 37° C. for 15 min. Next, the cells were stained with 0.01 mg/mL propidium iodide (Sigma) in the dark at room temperature for 10 min. The DNA content was analyzed by flow cytometry using a FACSCalibur (Becton Dickinson, Sunnyvale, Calif.) with Cellquest and Modfit LT3.0 software (Becton Dickinson) (FIGS. 1D & 2A)."}, "MDA-MB-231 cells [5]": {"system": "MDA-MB-231 cells", "experiment": "Cell cycle analysis", "assay_type": "cell-based, human", "conditions": "24 h treatment", "description": "as §1"}, "cyclinB1": {"system": "cyclinB1", "experiment": "Western blot", "assay_type": "cell-based", "description": "(§2) Protein levels were measured by Western blotting with corresponding specific primary antibodies, including those against Cdc2 p34(Santa Cruz), cyclinB1 (Santa Cruz) (FIG. 4A), Anti-Acetylated-H3K9 (Upstate), phosphorylated-H3 Ser28 (Cell signaling). GAPDH was as the loading control."}, "Acetylated-H3K9": {"system": "Acetylated-H3K9", "experiment": "Western blot", "assay_type": "cell-based", "description": "as §2"}, "phosphorylated-H3 Ser28": {"system": "phosphorylated-H3 Ser28", "experiment": "Western blot", "assay_type": "cell-based", "description": "as §2"}, "chromatin condensation": {"system": "chromatin condensation", "experiment": "DNase I sensitivity assay", "assay_type": "cell-based", "conditions": "1 h", "description": "Cells were treated with different concentrations of Lasonolide A for 1 h and were collected with centrifuging. The centrifuged cells were washed with PBS and fixed with 1.5% PFA for 15 min on ice. After washing by PBS, fresh PBS was added (300 μL) to re-suspend the pellet, then 700 μL 70% EtOH was gently added and the mixture was maintained at −20° C. overnight. The solution was washed by PBS once, then washed by 1× DNase I reaction buffer (500 μL), then incubated in 200 μL Reaction buffer with 4 Units DNase I (2 μL), 37° C., 10 min. The solution was washed by PBS and incubated in 100 μL Polymerase reaction buffer including 16 μM dATP, 16 μM dCTP, 16 μM dGTP, 16 μM dUTP-FITC, 100 unit/mL Polymerase I, 37° C. 60 min. FL1 channel of Green fluorescence signal were measured with flow cytometer (FIG. 1C)."}, "[6]": {"system": "Burkitt's Lymphoma CA46 cells", "experiment": "PCC induction and PI staining", "assay_type": "cell-based, human", "conditions": "1 h", "description": "(§3) Burkitt's Lymphoma CA46 cells (500,000) (FIG. 1B) or breast cancer MDA-MB-231 cells (500,000) (FIG. 1A) were treated by 100 nM Lasonolide A (stock solution 100 μM in DMSO) for 1 h. Lymphocytes were treated with 200 nM Lasonolide A for 1 h. Cells were harvested with centrifuging on 2,000 rpm for 5 min at 4° C. Pellets were washed once by PBS and re-suspended in 1 mL PBS. 200 μL cells mixture were added to the chamber for cytospining. Cells were cytospun on 800 rpm for 10 min; slides were fixed in fresh-made 4% paraformaldehyde fixation for 20 min at room temperature, then moved to 70% ethanol for 20 min. Slides were stained with Propidium Iodide (“PI”) (20 μg/mL) and RNase A (100 μg/mL) for 15 min. Slides were washed with PBS for three times and mounted with Vectashield anti-fade mounting media (Vector Laboratories, Inc., Burlingame, Calif.). Images were taken using a Nikon Eclipse TE-300 confocal microscope."}, "[7]": {"system": "breast cancer MDA-MB-231 cells", "experiment": "PCC induction and PI staining", "assay_type": "cell-based, human", "conditions": "1 h", "description": "as §3"}, "MCF-7 cells": {"system": "MCF-7 cells", "experiment": "Cell cycle analysis", "assay_type": "cell-based", "conditions": "24 h treatment", "description": "as §1"}, "HT 29 cells": {"system": "HT 29 cells", "experiment": "Cell cycle analysis", "assay_type": "cell-based", "conditions": "24 h treatment", "description": "as §1"}, "HCT 116 cells": {"system": "HCT 116 cells", "experiment": "Cell cycle analysis", "assay_type": "cell-based", "conditions": "24 h treatment", "description": "as §1"}},
  "note": "“And” between values parts separate entries of the source, which are not always exact repeats. Equal entries are not always repeated. “Also recorded” adds a separate entry of the source.",
  "data": [
    {"compound": "C=C(CCC(C)C)COC(=O)[C@H](O)C/C=C\\C[C@@H]1O[C@@H]2/C=C/C/C=C/C(C)=C\\[C@H]3O[C@@H](C/C=C/C=C/C(=O)O[C@H](C2)[C@@]1(C)CO)C[C@H](O)[C@H]3C", "note": "[Lasonolide A]", "values": [
      {"measurement": "attachment of cells to collagen I", "setting": "MDA-MB-231 cells [1]; collagen I", "value": "blocked; also recorded: reduced"},
      {"measurement": "attachment of cells to fibronectin", "setting": "MDA-MB-231 cells [1]; fibronectin", "value": "blocked; also recorded: reduced"},
      {"measurement": "cell adhesion / detachment", "setting": "MDA-MB-231 cells [1]; low dose, short-time treatment, nanomolar concentration", "value": "inhibited adhesion; also recorded: detached cells into suspension"},
      {"measurement": "cell cycle phases in which PCC is induced", "setting": "[2]", "value": "induce PCC in each phases of cell cycle; also recorded: induce PCC in each phase of the cell cycle"},
      {"measurement": "cell migration", "setting": "MDA-MB-231 cells [3]", "value": "inhibited migration"},
      {"measurement": "actin network / cytoskeleton", "setting": "[4]", "value": "reorganized the cytoskeleton system; also recorded: reorganized the actin network"},
      {"measurement": "cell cycle arrest", "setting": "CA46 cells", "value": "induced cell cycle arrest at G2/M phase"},
      {"measurement": "cell cycle arrest", "setting": "MDA-MB-231 cells [5]", "value": "induced cell cycle arrest at G2/M phase"},
      {"measurement": "protein level of cyclinB1", "setting": "cyclinB1", "value": "decreased the protein level of cyclinB1"},
      {"measurement": "acetylation of histone H3", "setting": "Acetylated-H3K9", "value": "decreased the acetylation of histone H3 Lysine 9; also recorded: decreased the acetylation of H3 (Arg9)"},
      {"measurement": "H3 acetylation induced by the HDAC inhibitor SAHA", "setting": "Acetylated-H3K9; with SAHA", "value": "attenuated the enhancement of H3 acetylation"},
      {"measurement": "phosphorylation of H3 (Ser28)", "setting": "phosphorylated-H3 Ser28", "value": "increased the phosphorylation of H3 (Ser28)"},
      {"measurement": "DNase I sensitivity, fluorescence shift", "setting": "chromatin condensation; 100 nM", "value": "evidence of an effect"},
      {"measurement": "DNase I sensitivity, fluorescence shift", "setting": "chromatin condensation; 200 nM", "value": "a greater change, affecting signal amplitude"},
      {"measurement": "cells with premature chromosome condensation (PCC)", "setting": "[6]; 100 nM Lasonolide A", "value": "97.9% and 99.5%"},
      {"measurement": "PCC induction (in words)", "setting": "[6]; 100 nM", "value": "induced premature chromosome condensation (PCC)"},
      {"measurement": "PCC induction (in words)", "setting": "[7]; 100 nM", "value": "induced premature chromosome condensation (PCC)"},
      {"measurement": "cells with PCC", "setting": "[7]", "value": 13, "unit": "%"},
      {"measurement": "cell cycle arrest", "setting": "MCF-7 cells", "value": "G2/M phase arrest"},
      {"measurement": "cell cycle arrest", "setting": "HT 29 cells", "value": "G2/M phase arrest"},
      {"measurement": "cell cycle arrest", "setting": "HCT 116 cells", "value": "G2/M phase arrest"}
    ]}
  ]
}
